Reference: ChEMBL document CHEMBL5370655

How the values were obtained:
[1] = biological target: Epidermal growth factor receptor (Homo sapiens, UniProt P00533, L858R/T790M); assay: Inhibition of EGFR L858R/T790M double mutant (unknown origin) using polyE4Y1 as substrate incubated for 5 mins with compound followed by substrate addition measured after 60 mins in presence of ATP by ADP-Glo reagent based assay
A-431 = assay: Antiproliferative activity against human A-431 cells assessed as inhibition of cell growth measured after 72 hrs by CCK8 assay; type: functional, cell-based; conditions: A-431, 72 h
[2] = Induction of cell cycle arrest in human H1975-TM cells assessed as accumulation at G0/G1 phase at 50 nM measured after 24 hrs by RNase A/propidium iodide staining based flow cytometric analysis (reference value: 64.3 %); type: functional
[3] = Induction of cell cycle arrest in human H1975-TM cells assessed as accumulation at G0/G1 phase at 500 nM measured after 24 hrs by RNase A/propidium iodide staining based flow cytometric analysis (reference value: 64.3 %); type: functional
[4] = Cmax in Sprague-Dawley rat at 50 mg/kg, po measured upto 24 hrs by HPLC-MS/MS analysis; type: ADME, organism-based; design: dose 50 mg/kg, time < 24 hrs, route po; conditions: in vivo
[5] = MRT (0 to infinity) in Sprague-Dawley rat at 50 mg/kg, po measured upto 24 hrs by HPLC-MS/MS analysis; type: ADME, organism-based; conditions: in vivo
[6] = Half life in Sprague-Dawley rat at 50 mg/kg, po measured upto 24 hrs by HPLC-MS/MS analysis; type: ADME, organism-based; conditions: in vivo
[7] = Oral bioavailability in Sprague-Dawley rat at 50 mg/kg measured upto 24 hrs by HPLC-MS/MS analysis; type: ADME, organism-based; conditions: in vivo
[8] = Toxicity in BALB/c mouse xenografted with human H1975-TM cells assessed as appearance of lesions in liver at 25 to 100 mg/kg, po measured after 25 days by hematoxylin-eosin staining based analysis; type: organism-based; conditions: in vivo, 600 h, dose 25-100 mg/kg, time 25 day
[9] = biological target: Epidermal growth factor receptor (Homo sapiens, UniProt P00533, C797S/L858R/T790M)
Sequence of Epidermal growth factor receptor (Homo sapiens, UniProt P00533, C797S/L858R/T790M) (P00533 25-1210 T790M/C797S/L858R limits assumed): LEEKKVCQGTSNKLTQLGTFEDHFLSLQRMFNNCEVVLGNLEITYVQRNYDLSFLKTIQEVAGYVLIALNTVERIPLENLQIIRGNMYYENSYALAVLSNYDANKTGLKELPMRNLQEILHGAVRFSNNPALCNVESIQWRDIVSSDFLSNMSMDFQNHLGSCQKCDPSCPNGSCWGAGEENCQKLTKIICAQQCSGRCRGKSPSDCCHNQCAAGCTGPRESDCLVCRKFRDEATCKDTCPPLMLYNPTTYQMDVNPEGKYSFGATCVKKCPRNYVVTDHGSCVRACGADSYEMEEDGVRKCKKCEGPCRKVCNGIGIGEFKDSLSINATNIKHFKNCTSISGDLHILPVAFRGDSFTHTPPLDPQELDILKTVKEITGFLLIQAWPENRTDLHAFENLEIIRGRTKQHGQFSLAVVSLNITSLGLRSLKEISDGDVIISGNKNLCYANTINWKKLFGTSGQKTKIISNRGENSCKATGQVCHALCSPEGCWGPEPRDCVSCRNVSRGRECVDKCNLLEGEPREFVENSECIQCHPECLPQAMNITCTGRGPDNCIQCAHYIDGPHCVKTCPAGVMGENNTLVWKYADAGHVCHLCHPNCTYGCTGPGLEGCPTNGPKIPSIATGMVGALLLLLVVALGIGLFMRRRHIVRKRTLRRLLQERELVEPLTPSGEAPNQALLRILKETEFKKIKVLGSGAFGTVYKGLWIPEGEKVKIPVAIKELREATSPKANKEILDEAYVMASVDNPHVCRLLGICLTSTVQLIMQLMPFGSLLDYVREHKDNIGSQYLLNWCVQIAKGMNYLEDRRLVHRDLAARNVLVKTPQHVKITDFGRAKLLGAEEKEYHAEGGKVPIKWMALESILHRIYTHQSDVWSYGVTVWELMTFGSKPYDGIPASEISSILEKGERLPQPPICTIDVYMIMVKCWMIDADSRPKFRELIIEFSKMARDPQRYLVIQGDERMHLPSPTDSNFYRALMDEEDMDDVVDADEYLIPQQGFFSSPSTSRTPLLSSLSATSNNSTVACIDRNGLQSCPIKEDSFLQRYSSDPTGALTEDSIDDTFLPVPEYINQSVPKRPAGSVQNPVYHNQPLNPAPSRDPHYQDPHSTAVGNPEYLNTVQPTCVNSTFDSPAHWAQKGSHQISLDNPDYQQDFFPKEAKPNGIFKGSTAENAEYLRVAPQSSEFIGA

Sequence of Epidermal growth factor receptor (Homo sapiens, UniProt P00533, L858R/T790M) (P00533 25-1210 T790M/L858R limits assumed): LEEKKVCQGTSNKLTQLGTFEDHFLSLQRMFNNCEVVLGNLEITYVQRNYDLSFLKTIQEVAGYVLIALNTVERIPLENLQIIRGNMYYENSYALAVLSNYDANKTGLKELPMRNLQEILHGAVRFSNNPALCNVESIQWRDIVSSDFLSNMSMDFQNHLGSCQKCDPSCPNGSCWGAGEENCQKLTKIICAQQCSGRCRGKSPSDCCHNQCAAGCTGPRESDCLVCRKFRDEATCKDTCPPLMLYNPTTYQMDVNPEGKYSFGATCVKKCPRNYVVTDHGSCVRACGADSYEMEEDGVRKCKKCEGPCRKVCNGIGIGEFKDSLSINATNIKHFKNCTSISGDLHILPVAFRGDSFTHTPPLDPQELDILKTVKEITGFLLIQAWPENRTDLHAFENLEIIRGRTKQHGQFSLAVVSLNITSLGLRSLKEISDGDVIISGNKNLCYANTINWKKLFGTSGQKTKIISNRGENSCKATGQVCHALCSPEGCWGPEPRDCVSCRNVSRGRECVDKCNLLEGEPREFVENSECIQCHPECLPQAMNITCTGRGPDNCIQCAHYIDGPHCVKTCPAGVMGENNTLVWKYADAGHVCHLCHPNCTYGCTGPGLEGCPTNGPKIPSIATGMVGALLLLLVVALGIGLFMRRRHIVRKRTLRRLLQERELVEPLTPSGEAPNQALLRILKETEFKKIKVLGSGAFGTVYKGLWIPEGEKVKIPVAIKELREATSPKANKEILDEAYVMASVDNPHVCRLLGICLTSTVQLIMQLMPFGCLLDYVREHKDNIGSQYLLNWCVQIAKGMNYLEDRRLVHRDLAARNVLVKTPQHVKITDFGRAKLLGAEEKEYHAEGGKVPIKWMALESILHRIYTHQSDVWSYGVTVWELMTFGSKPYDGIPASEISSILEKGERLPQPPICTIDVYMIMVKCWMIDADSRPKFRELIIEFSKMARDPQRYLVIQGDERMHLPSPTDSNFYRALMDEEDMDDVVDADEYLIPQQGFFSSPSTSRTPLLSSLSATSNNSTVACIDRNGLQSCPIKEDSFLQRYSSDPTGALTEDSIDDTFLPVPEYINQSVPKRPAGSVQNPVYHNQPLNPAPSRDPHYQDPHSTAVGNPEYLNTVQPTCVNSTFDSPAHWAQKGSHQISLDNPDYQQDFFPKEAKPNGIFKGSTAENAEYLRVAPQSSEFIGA

Compound: CCS(=O)(=O)N1CCC(c2nc(-c3ccc(F)cc3)c(-c3ccnc(Nc4ccc5c(ccn5CCN(C)C)c4)n3)s2)CC1
- IC50 [1]: 21 nM
- IC50 (A-431): 1400 nM
- Activity [2]: 68.3%
- Activity [3]: 76.3%
- Cmax [4]: 404 ng/mL
- MRT inf [5]: 5.43 h
- half-life [6]: 8.49 h
- bioavailability [7]: 30.7%
- Activity [8]: Non-Toxic
- IC50 [9]: 5.1 nM
